Assay results taken from PubChem BioAssay AID330 (DTP/NCI, 2004).
Values joined by “and” are separate entries in the source; they are usually repeats but may differ in a detail not shown here. Identical values can stand only once. Inconclusive results and toxic doses are left out. The calls were made as follows: active = survival T/C of 150% or more; inactive = T/C below 125% in these data.

Tested on: P388 leukemia ip, CD2F1 mice, survival T/C
Test: NCI In Vivo Anticancer Drug Screen. Data for tumor model P388 Leukemia (intraperitoneal) in CD2F1 (CDF1) mice
Details: endpoint: median survival time, higher = longer survival
Procedure, shortened: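 Mice carrying the transplanted tumor received test compound or vehicle. Survival was recorded in each group, and the value is the treated-group measurement divided by that of the vehicle-treated control group.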

[1] = dose: 60.0 mg/kg/injection, schedule: Q01DX005 (ip), vehicle: saline with Tween-80
[2] = dose: 120.0 mg/kg/injection, schedule: Q01DX005 (ip), vehicle: saline with Tween-80
[3] = dose: 240.0 mg/kg/injection, schedule: Q01DX005 (ip), vehicle: saline with Tween-80
[4] = dose: 50.0 mg/kg/injection, schedule: Q01DX009 (ip), vehicle: Klucel (hydroxypropylcellulose) (HPC)
[5] = dose: 100.0 mg/kg/injection, schedule: Q01DX009 (ip), vehicle: Klucel (hydroxypropylcellulose) (HPC)
[6] = dose: 200.0 mg/kg/injection, schedule: Q01DX009 (ip), vehicle: Klucel (hydroxypropylcellulose) (HPC)
[7] = dose: 60.0 mg/kg/injection, schedule: Q01DX005 (ip), vehicle: Klucel (hydroxypropylcellulose) (HPC)
[8] = dose: 120.0 mg/kg/injection, schedule: Q01DX005 (ip), vehicle: Klucel (hydroxypropylcellulose) (HPC)
[9] = dose: 240.0 mg/kg/injection, schedule: Q01DX005 (ip), vehicle: Klucel (hydroxypropylcellulose) (HPC)

Measured: T/C

CCOC(=O)Nc1ccc2nc(Sc3ccc(C)cc3)sc2c1
inactive: dose: 50.0 mg/kg/injection, schedule: Q01DX009 (ip), vehicle: saline with Tween-80 99 % of control | dose: 100.0 mg/kg/injection, schedule: Q01DX009 (ip), vehicle: saline with Tween-80 110 % of control | dose: 200.0 mg/kg/injection, schedule: Q01DX009 (ip), vehicle: saline with Tween-80 119 % of control

CS(=O)Cc1cc(-c2ccccc2)no1 (stereo not given)
inactive: [1] 99 % of control | [2] 104 % of control | [3] 97 % of control

CN(C=O)COC(=O)c1ccccc1
inactive: dose: 31.25 mg/kg/injection, schedule: Q01DX005 (ip), vehicle: distilled water + Tween-80 104 % of control | dose: 62.5 mg/kg/injection, schedule: Q01DX005 (ip), vehicle: distilled water + Tween-80 96 % of control | dose: 125.0 mg/kg/injection, schedule: Q01DX005 (ip), vehicle: distilled water + Tween-80 93 % of control | dose: 250.0 mg/kg/injection, schedule: Q01DX005 (ip), vehicle: distilled water + Tween-80 104 % of control

CC(=O)Oc1cc(C)c(Cl)c2c(OC(C)=O)cc(C(C)=O)c(O)c12
inactive: [4] 91 % of control | [5] 91 % of control | [6] 90 % of control

CS(=O)(=O)OCC(O)C(O)C(OS(C)(=O)=O)C(O)COS(C)(=O)=O (stereo not given)
inactive: dose: 50.0 mg/kg/injection, schedule: Q04DX003 (ip), vehicle: Klucel (hydroxypropylcellulose) (HPC) 100 % of control | dose: 100.0 mg/kg/injection, schedule: Q04DX003 (ip), vehicle: Klucel (hydroxypropylcellulose) (HPC) 100 % of control

O=S1(=O)CC(Cl)(Cl)C1
inactive: dose: 50.0 mg/kg/injection, schedule: Q01DX005 (ip), vehicle: saline with Tween-80 102 % of control | dose: 100.0 mg/kg/injection, schedule: Q01DX005 (ip), vehicle: saline with Tween-80 109 % of control

CC1(C)C(C(=O)/C=C2\Nc3ccccc3C2(C)C)=Nc2ccccc21
inactive: [7] 102 % of control | [8] 91 % of control | [9] 98 % of control

COC(=O)Nc1cn2nc(C)sc2n1
inactive: [1] 99 % of control | [2] 94 % of control | [3] 91 % of control

C1=Cc2ccccc2CS1
inactive: dose: 25.0 mg/kg/injection, schedule: Q01DX009 (ip), vehicle: other 106 % of control | dose: 50.0 mg/kg/injection, schedule: Q01DX009 (ip), vehicle: other 116 % of control | dose: 100.0 mg/kg/injection, schedule: Q01DX009 (ip), vehicle: other 108 % of control | dose: 200.0 mg/kg/injection, schedule: Q01DX009 (ip), vehicle: other 88 % of control | dose: 400.0 mg/kg/injection, schedule: Q01DX009 (ip), vehicle: other 88 % of control

CCCCCCCCCCCCCCN1CCS(=O)(=O)CC1
inactive: [4] 89 % of control | [5] 91 % of control | [6] 90 % of control

COc1cccc2c1C(=O)c1c(OC)c(CSC(=N)N)cc(OC)c1C2=O
inactive: dose: 2.0 mg/kg/injection, schedule: Q01DX009 (ip), vehicle: water 99 % of control | dose: 4.0 mg/kg/injection, schedule: Q01DX009 (ip), vehicle: water 104 % of control | dose: 8.0 mg/kg/injection, schedule: Q01DX009 (ip), vehicle: water 104 % of control | dose: 16.0 mg/kg/injection, schedule: Q01DX009 (ip), vehicle: water 117 % of control | dose: 32.0 mg/kg/injection, schedule: Q01DX009 (ip), vehicle: water 121 % of control | dose: 64.0 mg/kg/injection, schedule: Q01DX009 (ip), vehicle: water 111 % of control

CCN(CC)C(C)(C)C(=O)/C=C/c1ccc(C)cc1
inactive: [1] 107 % of control | [2] 103 % of control

O=P1(NNc2ncccn2)SC(NN=C2CCCCC2)=NC12CCCCC2 (stereo not given)
inactive: dose: 7.5 mg/kg/injection, schedule: Q01DX005 (ip), vehicle: Klucel (hydroxypropylcellulose) (HPC) 100 % of control | dose: 15.0 mg/kg/injection, schedule: Q01DX005 (ip), vehicle: Klucel (hydroxypropylcellulose) (HPC) 95 % of control | dose: 30.0 mg/kg/injection, schedule: Q01DX005 (ip), vehicle: Klucel (hydroxypropylcellulose) (HPC) 95 % of control | [7] 100 % of control

COc1ccccc1NC(=O)C(N=Nc1ccc(-c2nc3ccc(C)c(S(=O)(=O)O)c3s2)cc1S(=O)(=O)O)C(C)=O (stereo not given)
inactive: dose: 50.0 mg/kg/injection, schedule: Q01DX009 (ip), vehicle: saline 104 % of control | dose: 100.0 mg/kg/injection, schedule: Q01DX009 (ip), vehicle: saline 105 % of control | dose: 200.0 mg/kg/injection, schedule: Q01DX009 (ip), vehicle: saline 109 % of control

O=C1C=C(n2ccccc2=O)CCC1
inactive: dose: 60.0 mg/kg/injection, schedule: Q01DX005 (ip), vehicle: saline 93 % of control | dose: 120.0 mg/kg/injection, schedule: Q01DX005 (ip), vehicle: saline 93 % of control | dose: 240.0 mg/kg/injection, schedule: Q01DX005 (ip), vehicle: saline 102 % of control

O=C(O)COc1nc(Cl)c(Cl)cc1Cl
inactive: [7] 101 % of control and 104 % of control | [8] 103 % of control | [9] 113 % of control and 94 % of control

CC1(C)COC(c2cccc3c2C2C=CC3O2)=N1 (stereo not given)
inactive: [1] 92 % of control | [2] 97 % of control | [3] 108 % of control
